{"source": "patent US20040198838A1", "about": "“Pharmaceutical compositions containig terbinafin and use thereof” (priority 2001, published 2004)", "origin": "cited, not measured here", "key": {"CYP2D6": {"target": "CYP2D6 (Homo sapiens, UniProt P10635)", "sequence (P10635 whole entry)": "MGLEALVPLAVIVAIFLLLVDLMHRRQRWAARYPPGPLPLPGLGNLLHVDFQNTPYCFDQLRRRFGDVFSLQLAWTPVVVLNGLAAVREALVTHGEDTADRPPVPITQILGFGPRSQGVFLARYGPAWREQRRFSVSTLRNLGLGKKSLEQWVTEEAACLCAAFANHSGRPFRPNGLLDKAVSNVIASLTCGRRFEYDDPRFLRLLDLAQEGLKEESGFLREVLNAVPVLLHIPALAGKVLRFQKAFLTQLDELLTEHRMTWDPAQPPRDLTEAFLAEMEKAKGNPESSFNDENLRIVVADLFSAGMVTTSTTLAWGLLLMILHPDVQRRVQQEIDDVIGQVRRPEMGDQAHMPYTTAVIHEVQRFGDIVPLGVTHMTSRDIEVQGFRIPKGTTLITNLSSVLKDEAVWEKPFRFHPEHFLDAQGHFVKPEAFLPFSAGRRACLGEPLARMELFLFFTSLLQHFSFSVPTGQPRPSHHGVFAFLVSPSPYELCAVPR"}}}
{"smiles": "CN(C/C=C/C#CC(C)(C)C)Cc1cccc2ccccc12", "note": "[terbinafine, Terbinafine]", "values": [{"measurement": "inhibition of CYP2D6", "setting": "CYP2D6", "value": "potent inhibitor"}, {"measurement": "effective half-life", "setting": "in vivo", "value": "about 36 hours"}, {"measurement": "reduction of clearance", "setting": "patients with renal impairment (creatinine clearance up to 50 ml/min) or hepatic cirrhosis", "value": "approximately 50%"}, {"measurement": "area under the curve over 24 hours (AUC)", "setting": "single 250 mg terbinafine dose", "value": "about 4.56 μg.hour/ml"}, {"measurement": "peak drug plasma concentration (Cmax)", "setting": "single 250 mg terbinafine dose", "value": "about 1 μg/ml"}, {"measurement": "time to peak drug plasma concentration", "setting": "single 250 mg terbinafine dose", "value": "≤ 2", "unit": "h"}, {"measurement": "factor of AUC increase in steady state versus single dose", "setting": "steady state", "value": 2.5}, {"measurement": "increase of peak blood concentration (Cmax) in steady state versus single dose", "setting": "steady state", "value": 25, "unit": "%"}, {"measurement": "change in AUC when administered with a meal", "setting": "with a meal", "value": "moderate increase"}]}
